Assay [1] has as its system CSFV reference strain Alfort 187. In kind it is cell-based, porcine.
Assay [2] has as its system PBMC from vaccinated and challenged pigs. In kind it is cell-based.
The subject of the next assay is CSFV isolate. Further details: species or system pigs. The following applies: pig, in vivo.

Like-named read-outs stand apart in the source and are kept apart here.

In the case of `N[C@H](Cc1c[nH]c2ccccc12)C(=O)O` [D-tryptophan], the “Effect on IFN-γ mediated reduction in the proportion of CSFV infected cells” value (“Effect on IFN-γ mediated reduction” for short) in assay [1] is reported as “unaffected”.
Take `N[C@@H](Cc1c[nH]c2ccccc12)C(=O)O` [L-tryptophan]: the “Effect on IFN-γ mediated reduction” value in assay [1] was “unaffected”.
Turning to IFN-α, the “Proportion of infected cells” value in assay [1] is given as “eliminated the infection”.
Consider “L-N-6-(1-iminoethyl)lysine hydrochloride”, for which the “Effect on IFN-γ mediated reduction” value in assay [1] (after 48 hours) is “unaffected”.
Turning to LRAAMVEYSYIFLDEY [SEQ ID NO:2], the “Recognition of individual antigenic peptides (IFN-γ)” value in assay [2] is “recognition”. For the same compound, the “Occurrence of symptoms of CSFV infection compared with control group” value (“Occurrence … compared with control group” for short) in the assay on CSFV isolate was “reduced occurrence of symptoms of CSFV infection”.
Take NIMARTDHPEPIQLAY [SEQ ID NO:3]: the “Recognition of individual antigenic peptides (IFN-γ)” value in assay [2] is listed as “recognition”. Also, the “Occurrence … compared with control group” value with CSFV isolate was “reduced occurrence of symptoms of CSFV infection”.
Take NKYFEPRDSYFQQYML [SEQ ID NO:1]: in the assay on CSFV isolate, the “Occurrence … compared with control group” value was “reduced occurrence of symptoms of CSFV infection”.

The record behind these values is patent US20120258127A1 (priority 2010, published 2012).
